Measured values: patent publication US9212164B2, “Pesticidal compositions and processes related thereto” (Dow AgroSciences LLC, priority 2012, dated 2015)

What was measured:
[1] = tested on: Beet Armyworm (BAW) (Spodoptera exigua); assay: Bioassays on BAW, 128-well diet tray assay; type: in vivo; details: for mortality at 50 µg/cm2: Spodoptera exigua, 168 h, 50 μg/cm^2 on artificial diet, second instar larvae, five to seven days, 25° C., read-out: BAW Rating (percent mortality); for BAW Rating: Beet Armyworm, 128-well diet tray assay, rating C = Not Tested (omitted), D = no activity noticed
Protocol: (§1) Certain molecules disclosed in this document were tested against BAW, CEW and CL using procedures described in the following examples. In the reporting of the results, the “BAW & CEW & CL Rating Table” was used (See Table Section).
Bioassays on BAW (Spodoptera exigua)
Bioassays on BAW were conducted using a 128-well diet tray assay. One to five second instar BAW larvae were placed in each well (3 mL) of the diet tray that had been previously filled with 1 mL of artificial diet to which 50 μg/cm^2 of the test compound (dissolved in 50 μL of 90:10 acetone-water mixture) had been applied (to each of eight wells) and then allowed to dry. Trays were covered with a clear self-adhesive cover, and held at 25° C., 14:10 light-dark for five to seven days. Percent mortality was recorded for the larvae in each well; activity in the eight wells was then averaged. The results are indicated in the tables entitled “Table 3: Assay Results Part 1” and “Table 4: Assay Results Part 2” (See Table Section).

[2] = tested on: Cabbage Looper (CL) (Trichoplusia ni); assay: Bioassays on CL, 128-well diet tray assay; type: in vivo; details: 168 h, 50 μg/cm^2 on artificial diet, second instar larvae, five to seven days, 25° C., read-out: CL Rating (percent mortality)
Protocol: as §1
Bioassays on CL (Trichoplusia ni)
Bioassays on CL were conducted using a 128-well diet tray assay. One to five second instar CL larvae were placed in each well (3 mL) of the diet tray that had been previously filled with 1 mL of artificial diet to which 50 μg/cm^2 of the test compound (dissolved in 50 μL of 90:10 acetone-water mixture) had been applied (to each of eight wells) and then allowed to dry. Trays were covered with a clear self-adhesive cover, and held at 25° C., 14:10 light-dark for five to seven days. Percent mortality was recorded for the larvae in each well; activity in the eight wells was then averaged. The results are indicated in the table entitled “Table 4: Assay Results Part 2” (See Table Section).

Structure (SMILES)	mortality at 50 µg/cm2 [1] [%]	mortality at 50 µg/cm2 [2] [%]	BAW Rating [1]
O=C(NC1(C(=O)NC2CCCCC2)CC1)c1ccc(/C=C/C(c2cc(Cl)c(Cl)c(Cl)c2)C(F)(F)F)cc1Br (stereo not shown) [FA22]	0	50 to 100	
CC(F)(F)C(/C=C/c1ccc(C(=O)NC2(C(=O)NCC(F)(F)F)CC2)c(Br)c1)c1ccc(Cl)c(Cl)c1 (stereo not shown) [FA12]	50 to 100	50 to 100	
O=C(NC1(C(=O)NCC(F)(F)F)CC1)c1ccc(/C=C/C(c2cc(Cl)c(Cl)c(Cl)c2)C(F)(F)F)cc1Br (stereo not shown) [Compound F3]	50 to 100	50 to 100	
O=C(NC1(C(=O)NCC(F)(F)F)CC1)c1ccc(/C=C/C(c2cc(Br)cc(Br)c2)C(F)(F)F)cc1Br (stereo not shown) [Compound P1183]	50 to 100	50 to 100	
O=C(NC1(C(=O)NCC(F)F)CC1)c1ccc(/C=C/C(c2cc(Cl)c(Cl)c(Cl)c2)C(F)(F)F)cc1C(F)(F)F (stereo not shown) [Compound P1015]	50 to 100	50 to 100	
COCCCNC(=O)C1(NC(=O)c2ccc(/C=C/C(c3cc(Cl)c(Cl)c(Cl)c3)C(F)(F)F)cc2Br)CC1 (stereo not shown) [FA18]	50 to 100	50 to 100	
O=C(NC1(C(=O)NCc2cccc(C(F)(F)F)c2)CC1)c1ccc(/C=C/C(c2cc(Cl)c(Cl)c(Cl)c2)C(F)(F)F)cc1Br (stereo not shown) [FA26]	50 to 100	50 to 100	
O=C(NC1(C(=O)NCC(F)(F)F)CC1)c1ccc(/C=C/C(c2cc(Cl)c(Cl)c(Cl)c2)C(F)(F)C(F)(F)F)cc1C(F)(F)F (stereo not shown) [Compound P1005]	50 to 100	50 to 100	
N#Cc1cc(C(/C=C/c2ccc(C(=O)NC3(C(=O)NCC(F)(F)F)CC3)c(Br)c2)C(F)(F)F)ccc1F (stereo not shown) [Compound P513]	50 to 100	50 to 100	
O=C(NC1(C(=O)NCC(F)(F)F)CC1)c1ccc(/C=C/C(c2ccc(Cl)c([N+](=O)[O-])c2)C(F)(F)F)cc1Br (stereo not shown) [Compound P468]	50 to 100	50 to 100	
COCCNC(=O)C1(NC(=O)c2ccc(/C=C/C(c3cc(Cl)c(Cl)c(Cl)c3)C(F)(F)F)cc2Br)CC1 (stereo not shown) [FA28]	50 to 100	50 to 100	
Cc1cc(/C=C/C(c2cc(Cl)c(Cl)c(Cl)c2)C(F)(F)F)ccc1C(=O)NC1(C(=O)NCC(F)(F)F)CC1 (stereo not shown) [Compound F2]	50 to 100	50 to 100	
O=C(NC1(C(=O)NC2COC2)CC1)c1ccc(/C=C/C(c2cc(Cl)c(Cl)c(Cl)c2)C(F)(F)F)cc1Br (stereo not shown) [FA20]	50 to 100	50 to 100	
CCNC(=O)C1(NC(=O)c2ccc(/C=C/C(c3cc(Cl)c(Cl)c(Cl)c3)C(F)(F)F)cc2Br)CC1 (stereo not shown) [Compound P1023]	50 to 100	50 to 100	
O=C(NC1(C(=O)NCC(F)(F)F)CC1)c1ccc(/C=C/C(c2ccc(Cl)c(Cl)c2)C(F)(F)F)cc1Br (stereo not shown) [Compound P1093]	50 to 100	50 to 100	
O=C(NC1(C(=O)NCCn2cccn2)CC1)c1ccc(/C=C/C(c2cc(Cl)c(Cl)c(Cl)c2)C(F)(F)F)cc1Br (stereo not shown) [FA23]	50 to 100	50 to 100	
COc1ccccc1CN(C)C(=O)C1(NC(=O)c2ccc(/C=C/C(c3cc(Cl)c(Cl)c(Cl)c3)C(F)(F)F)cc2Br)CC1 (stereo not shown) [FA46]	0 to 50	50 to 100	
CCc1cc(Cl)cc(C(/C=C/c2ccc(C(=O)NC3(C(=O)NCC(F)(F)F)CC3)c(Br)c2)C(F)(F)F)c1 (stereo not shown) [FA13]	50 to 100	50 to 100	
O=C(NC1(C(=O)NC2CCOC2)CC1)c1ccc(/C=C/C(c2cc(Cl)c(Cl)c(Cl)c2)C(F)(F)F)cc1Br (stereo not shown) [FA25]	50 to 100	50 to 100	
O=C(NC1(C(=O)NCc2ccc(C(F)(F)F)cc2)CC1)c1ccc(/C=C/C(c2cc(Cl)c(Cl)c(Cl)c2)C(F)(F)F)cc1Br (stereo not shown) [FA34]	50 to 100	50 to 100	
O=C(NC1(C(=O)NCC(F)(F)F)CC1)c1ccc(/C=C/C(c2cc(Cl)c(Cl)c(Cl)c2)C(F)(F)F)cc1Cl (stereo not shown) [Compound F1, (E)-2-Chloro-4-(4,4,4-trifluoro-3-(3,4,5-trichlorophenyl)but-1-enyl)-N-(1-(2,2,2-trifluoroethylcarbamoyl)cyclopropyl)benzamide]	50 to 100	50 to 100	

Structure (SMILES)	mortality at 50 µg/cm2 [1] [%]	mortality at 50 µg/cm2 [2] [%]	BAW Rating [1]
O=C(NC1(C(=O)NCCn2ccnc2)CC1)c1ccc(/C=C/C(c2cc(Cl)c(Cl)c(Cl)c2)C(F)(F)F)cc1Br (stereo not shown) [FA24]	0 to 50	0	
CCNC(=O)C1(NC(=O)c2ccc(/C=C/C(c3cc(Cl)c(Cl)c(Cl)c3)C(F)(F)F)cc2C)CC1 (stereo not shown) [Compound P1026]	50 to 100	50 to 100	
N#CCN1CCC(NC(=O)c2ccc(/C=C/C(c3cc(Cl)c(Cl)c(Cl)c3)C(F)(F)F)cc2Br)CC1 (stereo not shown) [AC107]			B (More than 0 - Less than 50)
O=C(NC1(C(=O)NCC(F)(F)F)CC1)c1ccc(/C=C/C(c2cc(Cl)c(Cl)cc2Cl)C(F)(F)F)cc1C(F)(F)F (stereo not shown) [Compound P110]	50 to 100	50 to 100	
O=C(NC1(C(=O)NCC(F)(F)F)CC1)c1ccc(/C=C/C(c2cc(Cl)cc(Cl)c2)C(F)(F)F)cc1Br (stereo not shown) [Compound P1048]	50 to 100	50 to 100	
CCc1cc(Cl)cc(C(/C=C/c2ccc(C(=O)NC3(C(=O)NCC(F)(F)F)CC3)c(C(F)(F)F)c2)C(F)(F)F)c1 (stereo not shown) [FA10]	50 to 100	50 to 100	
O=C(NC1(C(=O)NCC(F)(F)F)CC1)c1ccc(/C=C/C(c2cc(Br)c(Cl)c(Br)c2)C(F)(F)F)cc1Br (stereo not shown) [FA6]	50 to 100	50 to 100	
CON(CC(F)(F)F)C(=O)C1(NC(=O)c2ccc(/C=C/C(c3cc(Cl)c(Cl)c(Cl)c3)C(F)(F)F)cc2C(F)(F)F)CC1 (stereo not shown) [FA49, (E)-N-(1-(Methoxy(2,2,2-trifluoroethyl)carbamoyl)cyclopropyl)-4-(4,4,4-trifluoro-3-(3,4,5-trichlorophenyl)but-1-en-1-yl)-2-(trifluoromethyl)benzamide]	50 to 100	50 to 100	
O=C(NC1(C(=S)NCC(F)(F)F)CC1)c1ccc(/C=C/C(c2cc(Cl)c(Cl)c(Cl)c2)C(F)(F)F)cc1Cl (stereo not shown) [Compound P1010]	50 to 100	50 to 100	
O=C(NC1(C(=S)NCC(F)(F)F)CC1)c1ccc(/C=C/C(c2cc(Cl)c(Cl)c(Cl)c2)C(F)(F)F)cc1Br (stereo not shown) [Compound P1009]	50 to 100	50 to 100	
N#Cc1cc(C(/C=C/c2ccc(C(=O)NC3(C(=O)NCC(F)(F)F)CC3)c(C(F)(F)F)c2)C(F)(F)F)ccc1F (stereo not shown) [Compound P515]	50 to 100	50 to 100	
Cc1cc(C(/C=C/c2ccc(C(=O)NC3(C(=O)NCC(F)(F)F)CC3)c(Br)c2)C(F)(F)F)ccc1Cl (stereo not shown) [Compound P243]	50 to 100	50 to 100	
O=C(NC1(C(=O)NCC(F)(F)F)CC1)c1ccc(/C=C/C(c2cc(Br)c(Cl)c(Br)c2)C(F)(F)F)cc1C(F)(F)F (stereo not shown) [FA7]	50 to 100	50 to 100	
CCNC(=O)NCc1ccc(/C=C/C(c2cc(Cl)cc(Cl)c2)C(F)(F)F)cc1Cl (stereo not shown) [CC31, (E)-1-(2-Chloro-4-(3-(3,5-dichlorophenyl)-4,4,4-trifluorobut-1-en-1-yl)benzyl)-3-ethylurea]			B (More than 0 - Less than 50)
O=C(NC1(C(=O)NCC(F)(F)F)CC1)c1ccc(/C=C/C(c2cc(Cl)c(Br)c(Cl)c2)C(F)(F)F)cc1C(F)(F)F (stereo not shown) [FA8]	50 to 100	50 to 100	
COc1ccccc1NC(=O)C1(NC(=O)c2ccc(/C=C/C(c3cc(Cl)c(Cl)c(Cl)c3)C(F)(F)F)cc2Br)CC1 (stereo not shown) [FA39]	0	0	
O=C(NC1(C(=O)NCC(F)(F)F)CC1)c1ccc(/C=C/C(c2ccc(F)c(F)c2F)C(F)(F)F)cc1C(F)(F)F (stereo not shown) [Compound P65]	50 to 100	50 to 100	
CN(Cc1ccc(Br)cc1)C(=O)C1(NC(=O)c2ccc(/C=C/C(c3cc(Cl)c(Cl)c(Cl)c3)C(F)(F)F)cc2Br)CC1 (stereo not shown) [FA44]	50 to 100	50 to 100	
O=C(NCCc1ccc(Cl)nc1)c1ccc(/C=C/C(c2cc(Cl)c(Cl)c(Cl)c2)C(F)(F)F)cc1Br (stereo not shown) [AC113]			B (More than 0 - Less than 50)
FC(F)(F)C(/C=C/c1ccc(-n2cncn2)cc1)c1ccccc1 (stereo not shown) [DC3]			B (More than 0 - Less than 50)
O=C(NC1CCN(C2COC2)CC1)c1ccc(/C=C/C(c2cc(Cl)c(Cl)c(Cl)c2)C(F)(F)F)cc1Br (stereo not shown) [AC108, (E)-2-Bromo-N-(1-(oxetan-3-yl)piperidin-4-yl)-4-(4,4,4-trifluoro-3-(3,4,5-trichlorophenyl)but-1-en-1-yl)benzamide]			B (More than 0 - Less than 50)
